Data taken from paper PMC11985661 (Naunyn-Schmiedeberg's Archives of Pharmacology, 2024).
Read-outs that look alike come from different tables or passages of the source.

How the values were obtained:
[1] = system: MCF-7; experiment: MTT cytotoxicity assay; format: cell-based; conditions: Homo sapiens, read-out: IC50 MCF-7
Experimental: (§1) Numerous cancer cell lines were procured from the American Type Culture Collection (ATCC) situated in Manassas, USA. […] The culture medium was supplemented with penicillin (100 units/mL), streptomycin ([…]), and heat-inactivated fetal bovine serum (10%). The cultivation of these cancer cells was carried out in a humidified atmosphere with 5% (v/v) CO2 at a temperature of 37 °C.
(§2) The 3-[4,5-dimethylthiazole-2-yl]-2,5-diphenyltetrazolium bromide (MTT) assay was used to evaluate the cytotoxicity of different substances or treatments. A commonly used approach for assessing the viability and proliferation of cells, including the cancer cell lines described, is colorimetric analysis.
(§3) Actively proliferating cells from different cancer cell lines were first trypsinized and quantified. […] These seeded cells were incubated in a humidified environment at 37 °C for 24 h to allow for cell attachment and acclimation.
(§4) Following the initial incubation, the cells were subjected to different doses of the chemicals under investigation, ranging from 0.1 to 1000 μM, for a duration of 72 h. The MTT assay was used to evaluate the treated cells’ vitality. Specifically, the culture media were removed, and the cells were incubated with 200 μl of 5% MTT solution per well.
(§5) Due to this, the MTT dye was metabolized by the living cells over the course of 2 h, forming colorful, insoluble formazan crystals.
(§6) This allowed the viable cells to metabolize the MTT dye into colored, insoluble formazan crystals over a 2-h period. After this incubation, the formazan crystals were dissolved in 200 μl of acidified isopropanol per well for 30 min after the residual MTT solution was withdrawn. This dissolution step was carried out at room temperature with a MaxQ 2000 plate shaker, covered with aluminum foil and continuously shaking.
(§7) The absorbance of the dissolved formazan crystals was measured at 570 nm through the use of Stat FaxR 4200 plate reader.

[2] = biological target: T1, EGFR^T790M (Homo sapiens, UniProt P00533, T790M); experiment: EGFR^T790M kinase inhibition assay (HTRF); format: biochemical; conditions: mean of three separate experiments
T1 construct: purchased Sigma
T1 sequence (P00533 25-1210 T790M): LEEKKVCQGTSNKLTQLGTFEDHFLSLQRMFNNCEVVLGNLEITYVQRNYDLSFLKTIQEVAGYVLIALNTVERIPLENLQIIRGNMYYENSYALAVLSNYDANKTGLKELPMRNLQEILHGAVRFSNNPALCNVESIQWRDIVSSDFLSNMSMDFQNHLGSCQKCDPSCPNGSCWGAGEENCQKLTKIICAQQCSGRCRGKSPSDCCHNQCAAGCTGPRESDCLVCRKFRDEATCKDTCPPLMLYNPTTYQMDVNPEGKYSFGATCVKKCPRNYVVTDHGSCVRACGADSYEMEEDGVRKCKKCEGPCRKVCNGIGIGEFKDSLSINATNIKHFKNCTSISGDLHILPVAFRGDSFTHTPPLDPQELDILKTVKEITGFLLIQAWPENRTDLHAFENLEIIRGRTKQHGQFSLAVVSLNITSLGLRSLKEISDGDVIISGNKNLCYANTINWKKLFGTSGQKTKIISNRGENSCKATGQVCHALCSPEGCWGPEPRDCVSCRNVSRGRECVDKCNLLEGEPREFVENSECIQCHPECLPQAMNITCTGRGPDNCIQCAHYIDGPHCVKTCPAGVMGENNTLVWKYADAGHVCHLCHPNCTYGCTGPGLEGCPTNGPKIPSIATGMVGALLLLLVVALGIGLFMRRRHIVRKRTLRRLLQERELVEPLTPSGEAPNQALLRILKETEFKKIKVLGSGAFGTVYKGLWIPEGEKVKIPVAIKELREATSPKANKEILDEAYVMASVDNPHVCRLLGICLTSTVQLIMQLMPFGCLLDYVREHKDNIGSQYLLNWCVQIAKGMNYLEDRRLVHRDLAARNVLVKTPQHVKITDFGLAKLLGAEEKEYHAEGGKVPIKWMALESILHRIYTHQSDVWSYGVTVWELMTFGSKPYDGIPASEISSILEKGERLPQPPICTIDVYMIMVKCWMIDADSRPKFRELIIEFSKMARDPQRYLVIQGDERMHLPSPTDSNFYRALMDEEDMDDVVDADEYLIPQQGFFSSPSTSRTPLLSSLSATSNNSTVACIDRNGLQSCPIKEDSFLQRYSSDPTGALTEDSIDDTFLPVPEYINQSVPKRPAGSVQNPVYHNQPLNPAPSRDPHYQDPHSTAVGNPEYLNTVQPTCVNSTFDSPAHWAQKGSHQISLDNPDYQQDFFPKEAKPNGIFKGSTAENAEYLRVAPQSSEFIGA
Experimental: The study utilized the homogeneous time resolved fluorescence (HTRF) assay to evaluate the kinase activity of EGFR^T790M mutant. The EGFR^T790M enzyme and ATP were obtained from Sigma. Initially, the tested chemical was first incubated for 5 min with the EGFR^T790M enzyme and its substrates in an enzymatic buffer. This pre-incubation step allowed the compound to interact with the enzyme before the catalytic reaction was initiated. […] The assay was carried out at room temperature for 30 min. The samples were mixed with detection reagents containing EDTA to stop the enzymatic process. The detection phase was allowed to proceed for 1 h. By utilizing GraphPad Prism 5.0 software, the inhibitory potency of the tested compounds was determined by calculating the half-maximal inhibitory concentration (IC50) values. Three independent measurements were done to determine the concentration of each compound.

[3] = biological target: T2, VEGFR-2 (Homo sapiens, UniProt P35968); experiment: In vitro VEGFR-2 kinase assay (Alpha Screen, anti-phosphotyrosine antibody); format: biochemical; conditions: mean of three separate experiments
T2 construct: purchased Millipore, UK
T2 sequence (P35968 20-1356): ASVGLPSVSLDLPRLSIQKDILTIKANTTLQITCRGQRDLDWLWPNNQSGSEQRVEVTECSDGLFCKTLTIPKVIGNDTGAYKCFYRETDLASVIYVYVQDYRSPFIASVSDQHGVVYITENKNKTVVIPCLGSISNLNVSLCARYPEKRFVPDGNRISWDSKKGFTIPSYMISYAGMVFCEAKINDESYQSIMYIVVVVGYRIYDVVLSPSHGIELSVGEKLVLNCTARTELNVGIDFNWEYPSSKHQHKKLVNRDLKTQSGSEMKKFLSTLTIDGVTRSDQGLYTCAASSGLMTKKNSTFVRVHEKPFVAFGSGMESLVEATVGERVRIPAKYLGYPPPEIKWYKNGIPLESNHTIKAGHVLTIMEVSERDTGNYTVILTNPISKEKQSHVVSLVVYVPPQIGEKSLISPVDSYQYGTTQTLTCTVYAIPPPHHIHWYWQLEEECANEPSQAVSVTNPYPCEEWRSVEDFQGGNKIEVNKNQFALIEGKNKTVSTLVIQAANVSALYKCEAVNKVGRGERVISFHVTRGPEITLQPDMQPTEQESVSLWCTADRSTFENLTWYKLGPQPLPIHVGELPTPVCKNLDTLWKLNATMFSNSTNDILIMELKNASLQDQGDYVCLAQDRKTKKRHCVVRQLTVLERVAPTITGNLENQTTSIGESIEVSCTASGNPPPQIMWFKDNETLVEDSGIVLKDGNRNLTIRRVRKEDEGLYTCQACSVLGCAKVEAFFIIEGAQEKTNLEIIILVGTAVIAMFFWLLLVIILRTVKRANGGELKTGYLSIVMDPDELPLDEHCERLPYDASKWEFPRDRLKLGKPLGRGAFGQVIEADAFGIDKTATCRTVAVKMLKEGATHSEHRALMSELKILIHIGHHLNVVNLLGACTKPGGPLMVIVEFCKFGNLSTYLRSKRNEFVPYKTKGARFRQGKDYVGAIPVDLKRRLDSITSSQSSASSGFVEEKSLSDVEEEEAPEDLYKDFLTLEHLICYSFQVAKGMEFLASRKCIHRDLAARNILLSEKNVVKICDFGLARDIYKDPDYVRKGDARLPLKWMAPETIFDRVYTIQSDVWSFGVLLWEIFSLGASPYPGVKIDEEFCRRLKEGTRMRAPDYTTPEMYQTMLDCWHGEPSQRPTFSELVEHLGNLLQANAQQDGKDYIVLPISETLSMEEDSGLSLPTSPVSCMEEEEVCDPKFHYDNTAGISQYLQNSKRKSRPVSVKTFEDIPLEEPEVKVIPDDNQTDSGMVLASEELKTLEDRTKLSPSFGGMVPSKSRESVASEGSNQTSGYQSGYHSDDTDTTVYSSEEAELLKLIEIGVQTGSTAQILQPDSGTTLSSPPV
Experimental: Analyzing the assay of VEGFR-2 kinase involved utilizing the Alpha Screen system (PerkinElmer, USA) and an anti-phosphotyrosine antibody in accordance with the manufacturer’s protocol. A solution containing 50 mM Tris–HCl (pH 7.5), 5 mM MnCl2, 5 mM MgCl2, 0.01% Tween-20, and 2 mM DTT was used to conduct the enzyme reactions. A total of 10 μM ATP, 0.1 μg/mL of biotinylated poly-GluTyr (in a 4:1 ratio), and 0.1 nM of VEGFR-2 (Millipore, UK) were all added in the reaction mixture.
After an overnight dark incubation, the plate was read using an ELISA Reader (PerkinElmer, USA). The baseline control was represented by wells with biotinylated poly-GluTyr (4:1) and the enzyme but without ATP, and the reaction control was provided by wells with the substrate and the enzyme but not the tested compounds.
The percentage inhibition was computed by comparing contrasting the compound-treated samples with the control incubations.

[4] = system: A549; experiment: MTT cytotoxicity assay; format: cell-based; conditions: Homo sapiens, 72 h, mean of three separate experiments
Experimental: as §1, §2, §3, §4, §5, §6, §7

[5] = system: HepG2; experiment: MTT cytotoxicity assay; format: cell-based; conditions: Homo sapiens, read-out: IC50 HepG2
Experimental: as §1, §2, §3, §4, §5, §6, §7

[6] = system: HCT116; experiment: MTT cytotoxicity assay; format: cell-based; conditions: Homo sapiens, HCT-116, 72 h, mean of three separate experiments
Experimental: as §1, §2, §3, §4, §5, §6, §7

C#Cc1cccc(Nc2ncnc3cc(OCCOC)c(OCCOC)cc23)c1 [Erlotinib]
IC50 ([1]; MCF7, 72 h): 8.2 µM

C[C@@H]1O[C@@H](OC[C@H]2O[C@@H](Oc3c(-c4ccc(O)c(O)c4)oc4cc(O)cc(O)c4c3=O)[C@H](O)[C@@H](O)[C@@H]2O)[C@H](O)[C@H](O)[C@H]1O [Rutin (3), rutin]
IC50 [2]: 0.66 µM
IC50 [3]: 1.18 µM
IC50 [4]: 8.71 µM
IC50 ([5]; HepG2, MTT, 72 h, mean of three separate experiments): 14.9 µM
IC50 [6]: 15.6 µM
IC50 ([1]; MCF7, MTT, 72 h, mean of three separate experiments): 12.3 µM

CNC(=O)c1cc(Oc2ccc(NC(=O)Nc3ccc(Cl)c(C(F)(F)F)c3)cc2)ccn1 [Sorafenib]
IC50 ([5]; HepG2, 72 h): 4 µM
